Where no end group is shown, it is not given here.
Legend:
Format in all cases: in vivo, human
[1] = system: patients with BPH who also optionally had LUTS; experiment: IPSS obstructive voiding scores after placebo injection followed by cross-over FT injection (Example Three)
From the text: In a third analysis group, patients with BPH who also optionally had LUTS were given an intraprostatic injection of PBS pH 7.2 vehicle alone, under double-blind conditions by a urologist in an office setting under ultrasound guidance. Patients were followed for 1 to 3 years with regular physical examinations, laboratory tests, and evaluations of symptoms. 131 patients who received PBS vehicle alone injections after 1-3 years received a cross-over injection of FT (SEQ ID NO. 1 (Ile-Asp-Gln-Gln-Val-Leu-Ser-Arg-Ile-Lys-Leu-Glu-Ile-Lys-Arg-Cys-Leu), 2.5 mg) in phosphate buffered saline pH 7.2 (“PBS”). The differences from baseline obstructive voiding scores to follow-up scores were calculated in blinded placebo treated patients (Group One); blinded placebo treated patients who received subsequent conventional oral BPH medications (Group Two), and blinded placebo treated patients who subsequently received FT treatment (Group Three).

[2] = system: patients with BPH who also optionally had LUTS; experiment: IPSS obstructive voiding scores in all patients who received FT versus placebo alone (Example Four); conditions: Table 4, all FT-treated patients vs placebo alone
From the text: In a fourth analysis group, patients with BPH who also optionally had LUTS were given an intraprostatic injection of PBS pH 7.2 vehicle alone or of FT, under double-blind conditions by a urologist in an office setting under ultrasound guidance. Patients were followed for 1 to 3 years with regular physical examinations, laboratory tests, and evaluations of symptoms. 217 patients received double blind placebo alone (Group One). 287 patients received double blind FT alone (Group Two). After 1-3 years, 131 patients who received PBS vehicle alone injections received a cross-over injection of FT (Group Three). The final group of 189 patients received blinded FT followed after 1-3 years by a second injection of FT (Group Four). The difference from baseline obstructive voiding scores to follow-up scores were calculated in blinded placebo treated patients (n=217), and compared to groups 2-4 who received FT treatment (n=607).

[3] = system: patients with BPH who optionally also had LUTS; experiment: IPSS symptom evaluation after a single intraprostatic injection of FT or PBS, double-blind (Example One)
Description: Patients with BPH and who optionally also had LUTS were given an intraprostatic injection of either a) FT (SEQ ID NO. 1 (Ile-Asp-Gln-Gln-Val-Leu-Ser-Arg-Ile-Lys-Leu-Glu-Ile-Lys-Arg-Cys-Leu), 2.5 mg) in phosphate buffered saline pH 7.2 (“PBS”) or b) PBS alone, under double-blind conditions by a urologist in an office setting under ultrasound guidance. Patients were followed for 1 to 6 years with regular physical examinations, laboratory tests, and evaluations of symptoms. Symptomatic evaluation was measured by the International Prostate Symptom Score (IPSS) which is a quantitative scale used to gauge prostatic symptomatic improvement or worsening. The IPSS quantifies the following: 1) incomplete bladder emptying after urination; 2) frequent urination; 3) stopping and starting during urination; 4) urgent need to urinate; 5) weakness of urinary stream; 6) need to push or strain during urination; 7) need to urinate after going to sleep at night (nocturia).
IPSS items 1, 3, 5 and 6 comprise the obstructive voiding scales and IPSS items 2, 4, and 7 comprise the irritative storage scales. The difference from baseline irritative storage scores to follow-up scores; and from baseline obstructive voiding scores to follow-up scores were calculated in FT treated subjects and Placebo treated controls.

[4] = Table 1, single FT injection vs PBS control
[5] = general statement in the description

With “Ile-Asp-Gln-Gln-Val-Leu-Ser-Arg-Ile-Lys-Leu-Glu-Ile-Lys-Arg-Cys-Leu (IDQQVLSRIKLEIKRCL; also: trifluoroacetate salt) [SEQ ID NO: 1-FT, 17-mer peptide …]” the “improvement in MOVS measured by IPSS compared to placebo control followed by conventional oral BPH medication” value ([1]; Table 3, cross-over FT injection) was “more than 320%”, the “improvement in MOVS measured by IPSS compared to control composition that does not contain FT” value ([1]; Table 3, cross-over FT injection vs placebo alone) was “more than 104%” and the “improvement in MOVS measured by IPSS compared to control composition that does not contain FT” value [2] was “more than 105%”. The “improvement in MISS measured by IPSS compared to control composition that does not contain FT” value [3, 4] was “more than 34%”, the “improvement in MOVS measured by IPSS compared to control composition that does not contain FT” value [3, 4] was “more than 46%” and the “improvement in MISS measured by IPSS compared to control composition that does not contain FT” value [3, 5] was “more than 20%”. For the same substance, the “improvement in MOVS measured by IPSS compared to control composition that does not contain FT” value [3, 5] was “more than 30%”.
